Each structure is given as a SMILES string.

Molecule `O=[N+]([O-])c1ccc2c(c1)CCN(Cc1ccccc1)C2` had a melting point of 76 to 78 °C.
The same measure for `CCCC[C@H](NC(=O)[C@H](CC(C)C)NC(=O)c1ccccc1OC)C(=O)CSCc1ccco1`: 77 to 78 °C; for `CN1c2c(oc(=O)n(-c3ncccn3)c2=O)-c2ccccc2S1(=O)=O`: 282 to 284 °C; for `COCCCn1c2ccc(O)cc2c2c3c(c(-c4ccccc4Cl)cc21)C(=O)NC3=O`: 260 to 262 °C.
The same measure for `CC(C)c1ccc(O[C@@H](Cc2ccc(O)cc2)C(=O)N2C(=O)OC[C@@H]2Cc2ccccc2)cc1`: 142 to 143 °C; for `COC(=O)C1=C(COCCn2c(C)nc(C)c2C)Nc2c(c(=O)n(C)c(=O)n2C)C1c1ccccc1Cl` (stereo unspecified): 226 to 228 °C; for `C[C@@H]1[C@H]2C(=O)N(Cc3ccccc3)C(=O)[C@H]2[C@@H](c2ccc(C(N)=NO)cc2)N1C` (racemic): 194 to 196 °C.
`CC12CCC3C(CCC4CC=CCC43C)C1CC=C2Br` (stereo unspecified) yielded a melting point of 76 to 77 °C.
For `Cc1nc2cccc(C)c2c(=O)[nH]1` the value was 255 to 257 °C.
Consider `COc1cccc(NC(=O)NC2C(=O)N(CC34CC5CC(CC(C5)C3)C4)c3ccccc3N(c3ccccc3)C2=O)c1` (stereo unspecified), for which the melting point was in the range of 267 to 268 °C.
The same measure for `Cc1oc2ccc(C#N)cc2c1Cl`: 132 to 134 °C.
For `O=C(O)c1ccn2c1C(c1cccnc1)CC2` (stereo unspecified) the value was 210 °C; for `CC1(C)OCCc2nc(-c3ccccc3)sc21`, 65 to 66 °C; for `Fc1cccnc1N1CCC2(CC1)COOC2`, 45 to 47 °C.
For `CC1=C([N+](=O)[O-])C(c2cccc(Cl)c2Cl)c2c[nH]nc2N1` (stereo unspecified) the value was greater than 270 °C; for `CNc1nc(C)c(-c2nc3ccccc3c(=O)n2-c2ccccc2)s1`, 209 to 210 °C; for `CCO/C=C/C(=O)Nc1cccc(Br)c1OC`, 102 to 104 °C.
Molecule `CC1(C(=O)c2c[nH]c3ncc(-c4cccc(N5CCN(S(C)(=O)=O)CC5)c4)nc23)CCCCC1` registered a melting point of 230 to 231 °C.
The same measure for `O=C(O)c1cc(=O)c(-c2ccc(OCc3ccccc3)c(OCc3ccccc3)c2)co1`: 206 to 208 °C; for `CCn1ncc2c(NCc3ccccc3)c3ccc(OC)cc3nc21`: 163 to 164 °C; for `Cc1ccc(OC(=O)C=Cc2ccccc2)c(C(=O)O)c1`: 162 °C.
The same measure for `Cc1ccc(NC(=O)c2ccc(C[N+]3([O-])CC[N+](C)([O-])CC3)cc2)cc1Nc1nccc(-c2cccnc2)n1` (stereo unspecified): 242 to 244 °C.
With `NCCCOc1ccc2cc(CC(=O)O)c(=O)n(Cc3ccccc3)c2c1`, the melting point lay within 126 to 128 °C.
`COc1ccc(N=C(C#Cc2ccccc2)N2CCN(Cc3ccc(F)cc3)CC2)cc1` gave a melting point of 98 °C.
As for `CC(C)(C)OC(=O)[C@@H]1CC[C@H](c2ccccc2)N1C(=O)CNC(=O)Nc1cccc(CC(=O)O)c1`, the melting point stood at 112 °C.
The same measure for `CCOC(=O)/C=C\C=C(c1ccccc1)c1ccccc1`: 34 to 35 °C; for `CCOc1ccc(Br)c(O)c1C(=O)NCC1CCCN1CC` (stereo unspecified): 74 to 76 °C; for `Nc1sc2c(c1C(=O)c1ccc(Cl)c3ccccc13)CCCC2`: 179 to 181 °C.
In turn, `Cc1c(SCc2ccc(-c3ccccc3)cc2)cnn(C(C)(C)C)c1=O` gave a melting point of 112 to 115 °C.
For `CC(C)(C)NC(=NC#N)Nc1cnc2ccccc2c1` the value was 228 to 229 °C; for `O=C(O)C1(COc2ccc(Br)cc2)COC1`, 122 to 124 °C; for `COc1cc(OCC(=O)O)c(C)cc1SCc1ccc(-c2c(C)cc(C)cc2C)cc1`, 141 °C.
For `CNC(=O)C(C)Oc1cc(Oc2nn(C)c(C(F)(F)F)c2Cl)ccc1[N+](=O)[O-]` (stereo unspecified) the value was 140 to 142 °C.
The same measure for `Cc1ccc2ccc(Cn3c(=S)sc4ccccc43)c(O)c2n1`: 211 to 215 °C.
As for `O=C(O)Cc1c(-c2ccccc2)nn(C2CCCCC2)c1-c1ccccc1`, the melting point fell in the range of 229 to 231 °C.
For `Nc1ccc2c(c1)CC(N1CCN(CCN3CCOC3=O)CC1)c1ccccc1S2` (stereo unspecified) the value was 193 to 196 °C; for `Cc1cccc2[nH]c(=O)n(CCCN3CC=C(c4cccc(C(F)(F)F)c4)CC3)c(=O)c12`, 158 to 160 °C; for `O=C1CCC(c2ccc(NC(=O)C3(Cl)CC3)cc2)=NN1`, 231 to 232 °C.
For `CNC(=O)Nc1ccc(Oc2ccc3sncc3c2)cc1` the value was 178 °C; for `N#CC(C(N)=O)c1ccccc1[N+](=O)[O-]` (stereo unspecified), 172 to 174 °C; for `O=C(O)Cn1cc(Cc2nc3c(F)c(F)cc(F)c3s2)c2cc(Oc3ccccc3)ccc21`, 128 to 130 °C.
For `CCCCCNS(=O)(=O)NC(=O)/C(C)=C/c1ccc(OCCOC)cc1Oc1ncc(C(F)(F)F)cc1Cl` the value was 152 to 153 °C.
On to `CCOc1cc(OC)cc(O)c1C(=O)C=Cc1ccc(OC)cc1`, for which the melting point is 124 °C.
Molecule `CCOC(=O)c1ccccc1OCCCCCCCCCCC(=O)CCCCOc1ccc(Cl)cc1` returned a melting point of 95 to 96 °C.
Consider `COc1c(F)c(F)c([N+](=O)[O-])c2c(=O)c(C(=O)O)cn(C3CC3)c12`, for which the melting point was in the range of 216 to 221 °C.
For `Nc1ccc2nc(-c3ccc(Cl)cc3)sc2c1` the value was 166 to 168 °C; for `Nc1ccc(S(=O)(=O)N2CCCC(c3ccc(Cl)c(Cl)c3)=N2)cc1`, 232 to 234 °C; for `Cc1ccc(C(=O)NN2CCOCC2)c(Nc2ccc3[nH]ncc3c2)n1`, 257 to 260 °C.
The same measure for `CCCCCCCc1cc2cn(C(CC)CC)c(=O)nc2o1`: 128 to 130 °C.
Turning to `N#Cc1ccc(O[C@@H]2c3cccnc3C[C@H]2N2CCC[C@@H](N)C2)c(Cl)c1`, the melting point came to 172 °C.
The molecule `NCCCCCCCCNc1nc(N)nc2c1ncn2C1C=CC(CO)C1` (stereo unspecified) displayed a melting point of 125 to 127 °C.
For `C[C@]1(c2ccccc2)C[C@@]1(NS(=O)(=O)c1ccc(-c2cc(C(F)(F)F)on2)s1)C(=O)O` the value was 130 to 132 °C.
As for `CN(Cc1cc(C(F)(F)F)cc(C(F)(F)F)c1)C(=O)c1oc(=O)c2ccc(Cl)cc2c1-c1ccccc1`, the melting point is 170 to 171 °C.
The same measure for `O=C1Nc2ccccc2C12COc1ccc(Br)cc12` (stereo unspecified): 225 to 228 °C.
The same measure for `Cc1cc(-c2cc(F)c(F)cc2-c2ccc(S(N)(=O)=O)cc2)ccc1Cl`: 142 to 143 °C; for `C=C(Sc1ccc(Br)cc1)S(=O)(=O)c1cccc([N+](=O)[O-])c1`: 109 to 111 °C.
The same measure for `COc1cc(C(=O)N2Cc3ccc(C(=O)NCc4ccc(Cl)cc4)n3Cc3ccccc32)ccc1-c1ccccc1C`: 218 to 219 °C; for `Cc1ccc(C(=O)CC(O)C(=O)O)cc1` (stereo unspecified): 92 to 100 °C.
`O=C1COc2ccc(C3=Nc4cc(Cl)ccc4SC3c3ccccc3)cc2N1` (stereo unspecified) gave a melting point of 234 to 236 °C.
The molecule `COC(=O)c1c(Cl)cc(Cl)cc1NC(=O)CSc1ccc(NC(=O)c2cccnc2)cc1` returned a melting point of 156 to 159 °C.
The molecule `CNc1nnc(-c2cccc(F)c2)c(=O)n1NC` registered a melting point of 173 to 174 °C.

In general, melting point refers to the temperature, or range, at which the solid turns liquid.
